Results as given in US9181182B2, “S1P receptors modulators” (Akaal Pharma PTY LTD, priority 2008, dated 2015).
Where a name gives a salt, the structure may show the parent alone.

Columns and labels:
[1] = test system: Human promyelocytic leukemia (HL-60) cells; assay: Cell viability (growth inhibition) assay, MTS; type: cell-based; settings: 50% reduction in cell viability of HL-60 cells, 48 hr incubation
Protocol: In order to measure the apoptotic effect of compounds on the metabolic activity of viable cells, the following assay was performed on Human promyelocytic leukemia cells. The assay utilises the tetrazolium compound (3-(4,5-dimethylthiazol-2-yl)-5-(3-carboxymethoxyphenyl)-2-(4-sulfophenyl)-2H-tetrazolium, inner salt; (MTS) and an electron coupling reagent (phenazine methosulfate; (PMS). MTS is bioreduced by cells into a formazan product the optical absorbance of which is measured directly from 96 well assay plates. The conversion of MTS into aqueous, soluble formazan is accomplished by dehydrogenase enzymes found in metabolically active cells. The quantity of formazan product as measured by the amount of 490 nm absorbance is directly proportional to the number of living cells in culture.
The assay was based on the National Cancer Institute (NCI) protocol, briefly, cells were grown in RPMI 1640 media supplemented with 10% FCS (foetal calf serum) and kept at 37° C. in a humidified environment with 5% CO2.
For the growth inhibition assay, Human promyelocytic leukemia (HL-60) cells were seeded at a density of 10,000 cells per well in 96 well plates in a volume of 100 μl and allowed to grow for 24 h. Compounds were serially diluted in DMSO at concentrations 100 fold higher than used in the assay (100×). Compounds were freshly prepared for each experiment. The 100× stocks were then diluted to 2× stocks into media and immediately, 100 μl of this 2× stock was added to the cells to create the desired final concentration of drug with a DMSO concentration of 1%. One row of each 96 well plate was treated with DMSO alone as a control. Cells were then incubated for a further 48 hr. Metabolic activity was determined using MTS (Promega) (90% 1.6 mg/ml MTS, 10% 1.6 mg/ml PMS (phenazine methosulfate) made fresh in PBS). 50 μl of this mix was added to all wells of the plates and allowed to incubate for 1.5-2 hr. Plates were shaken gently for about 15 min and absorbance was read on a plate reader at 490 nm. Averages were taken of the readings at each point with standard deviation and plotted using MicroCal Origin.

S1P1 human receptor = S1P1 human receptor (Homo sapiens (Human), UniProt P21453); assay: S1P1 [35S]-GTPgamaS binding assay (agonist activity); type: biochemical; settings: for EC50S1P1/EC50S1P: potency at S1P1 relative to S1P; for EC50: GTPgamaS binding, agonist; for Efficacy (% of maximum): S1P1, relative to reference agonist S1P
Sequence of S1P1 human receptor (P21453 whole entry): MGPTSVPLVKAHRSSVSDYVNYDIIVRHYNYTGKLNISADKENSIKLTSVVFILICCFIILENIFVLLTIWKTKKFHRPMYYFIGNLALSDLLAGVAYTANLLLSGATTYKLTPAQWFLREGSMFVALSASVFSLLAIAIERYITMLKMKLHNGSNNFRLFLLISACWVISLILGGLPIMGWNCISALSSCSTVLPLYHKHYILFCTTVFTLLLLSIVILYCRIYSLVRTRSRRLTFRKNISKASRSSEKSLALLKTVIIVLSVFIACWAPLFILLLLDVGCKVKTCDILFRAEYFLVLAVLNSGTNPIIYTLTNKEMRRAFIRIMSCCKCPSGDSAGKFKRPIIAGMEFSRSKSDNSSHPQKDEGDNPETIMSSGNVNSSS
Protocol: Selected Compounds of the Examples were evaluated at Millipore Corporation, USA, using S1P1 receptor; [^35S]-GTPgamaS binding assay. A [^35S]-GTPgamaS binding assay at Millipore was conducted by GPCR Profiler™ Custom Service Laboratory, Temecula, Calif., Millipore, Inc. to monitor dose-dependent agonist selectivity for selected Examples against the S1P1 receptors. The assay was completed with sample compounds subjected to an eight-point, four-fold dose response curve with starting concentration of 10 μM. Selectivity was determined upon initial addition of compounds followed by a 30 minute incubation at 30° C. Following compound incubation, bounded [^35S]-GTPgamaS was determined by filtration and scintillation counting.
(§1) Independently, selected compounds were evaluated for S1P1 and S1P3 agonistic activity. The S1P1 assay system was GTPgama-S35 binding in membranes from CHO K1 cells, expressing S1P1 human receptor. The S1P3 assay system was calcium mobilization in CHO K1 cells expressing S1P3 human receptor. […] Compounds were tested initially at a concentration of 10 μM.

S1P3 human receptor = S1P3 human receptor (Homo sapiens (Human), UniProt Q99500); assay: S1P3 calcium mobilization in CHO K1 cells; type: cell-based; settings: NA = Not Active
Sequence of S1P3 human receptor (Q99500 whole entry): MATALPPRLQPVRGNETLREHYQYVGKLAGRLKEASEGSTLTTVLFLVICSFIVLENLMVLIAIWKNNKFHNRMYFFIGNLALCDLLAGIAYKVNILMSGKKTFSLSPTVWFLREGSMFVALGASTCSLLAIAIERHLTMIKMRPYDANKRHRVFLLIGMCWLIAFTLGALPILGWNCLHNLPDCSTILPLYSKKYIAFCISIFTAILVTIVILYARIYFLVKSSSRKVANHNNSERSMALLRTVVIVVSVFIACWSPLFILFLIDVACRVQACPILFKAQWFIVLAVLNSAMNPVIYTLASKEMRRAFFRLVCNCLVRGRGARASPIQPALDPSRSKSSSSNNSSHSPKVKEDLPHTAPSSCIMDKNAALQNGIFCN
Protocol: as §1

| Compound | IC50 [1] | EC50S1P1/EC50S1P (S1P1 human receptor) | IC50 ([1]; Homo sapiens) | EC50 (S1P1 human receptor) | Efficacy (% of maximum) (S1P1 human receptor) | EC50 (S1P3 human receptor) |
| --- | --- | --- | --- | --- | --- | --- |
| 2-Amino-2-((5-(5-3-(1-admantyl)-3-methoxyphenyl)-1,2,4-oxadiazol-3-yl)indolin-1-yl)methyl)propane-1,3-diol [Example 33] | 2.91 ± 0.13 µM | >1000 |  |  |  |  |
| NC(CO)(CO)CN1CCc2c(OCc3cc4c(Cl)cc(Cl)cc4o3)cccc21 [41(a), 2-Amino-2-((4-((4,6-dichlorobenzofuran-2-yl)methoxy)indolin-1-yl)methyl)propane-1,3-diol] |  | 144.46 | 2.55 ± 0.78 µM | > 1.36 µM | 42% |  |
| CCCCCCCCc1ccc2c(c1)CN(CC(N)(CO)CO)C2 [Example 2, 2-Amino-2-((5-octylisoindolin-2-yl)methyl)propane-1,3-diol] |  | 593 | 3.48 ± 0.14 µM | 1.56 µM | 91% |  |
| CCCCCCCCc1ccc2c(c1)CCN2CC(N)(CO)CO [Example 3, 2-Amino-2-((5-octylindolin-1-yl)methyl)propane-1,3-diol] |  | 709 | 3.7 ± 1.02 µM | 2.11 µM | 73% |  |
| CCCCCCCCc1ccc2c(c1)CCCN2CC(N)(CO)CO [Example 9, 2-Amino-2-((6-octyl-3,4-dihydroquinolin-1(2H)-yl)methyl)propane-1,3-diol] |  | >1000 | 2.46 ± 0.51 µM | > 0.86 µM |  |  |
| CCCCCCCCc1ccc2c(c1)CCN(CC(N)(CO)CO)C2 [Example 10, 2-Amino-2-((6-octyl-3,4-dihydroisoquinolin-2(1H)-yl)methyl)propane-1,3-diol] |  | >1000 | 1.38 ± 0.17 µM | > 0.51 µM |  |  |
| CC1(C)C2CCC(CCOc3ccc(CCC(N)(CO)CO)cc3)C1C2.Cl (stereo not drawn) [Example 23, 2-Amino-2-(4-(2-(6,6-dimethylbicyclo[3.1.1]heptan-2-yl)ethoxy)phenethyl) propane-1,3-diol hydrochloride salt] |  | 419 | 2.26 ± 0.68 µM | 1.24 µM | 72% |  |
| COc1ccc(-c2nc(-c3ccc4c(c3)CCN4CC(N)(CO)CO)no2)cc1C12CC3CC(CC(C3)C1)C2 [Example 30] | 3.19 ± 0.26 µM | >1000 |  | > 55.4 µM |  |  |
| Cc1cc2cc(-c3nc(-c4cccc5c4CCN5CC(N)(CO)CO)no3)ccc2o1 [Example 42, 2-Amino-2-((4-(5-(2-methylbenzofuran-5-yl)-1,2,4-oxadiazol-3-yl)indolin-1-yl)methyl)propane-1,3-diol] |  | 117.8 | 1.7 ± 0.1 µM | 1.42 µM | 92% |  |
| NC(CO)(CO)CN1CCc2c(-c3noc(C45CC6CC(CC(C6)C4)C5)n3)cccc21 [Example 57, 2-Amino-2-((4-(5-(1-adamantyl)-1,2,4-oxadiazol-3-yl)indolin-1-yl)methyl) propane-1,3-diol] |  | 268.44 | 1 µM |  | 82% |  |
| CCOc1ccc(-c2nc(-c3ccc(C4=CCN(CC(N)(CO)CO)CC4)cc3)no2)cc1OCC [Example 58, 2-Amino-2-((4-(4-(5-(3,4-diethoxyphenyl)-1,2,4-oxadiazol-3-yl)phenyl)-5,6-dihydropyridin-1(2H)-yl)methyl)propane-1,3-diol] |  | 150 | 1.7 µM | > 2.06 µM | 60% |  |
| NC(CO)(CO)CN1CCC2CCCCC2C1 (stereo not drawn) [Example 62, 2-Amino-2-((octahydroisoquinolin-2(1H)-yl)methyl)propane-1,3-diol] |  |  | > 100 µM |  |  |  |
| CCCCCCCCOc1ccc(CCC(N)(CO)CO)cc1C12CC3CC(CC(C3)C1)C2.Cl [Example 63, 2-Amino-2-(3-(1-admantyl)-4-(octyloxy)phenethyl)propane-1,3-diol hydrochloride salt] | 2.4 ± 0.62 µM | 3188.66 |  | > 40 µM |  |  |
| NC(CO)(CO)CCc1ccc(-c2ccc(O)c(C34CC5CC(CC(C5)C3)C4)c2)cc1 [Example 64, 2-Amino-2-(2-(3′-(1-admantyl)-4′-hydroxybiphenyl-4-yl)ethyl)propane-1,3-diol hydrochloride salt] | 3.44 ± 0.12 µM |  |  |  |  |  |
| CCCCCCCCc1ccc(CCC(N)(CO)CO)cc1 [FTY 720, 2-amino-2-(2-[4-octylphenyl]ethyl)-1,3-propanediol, reference compound] |  |  | 3.34 ± 0.19 µM |  | 99% |  |

The remaining lines, values ahead:

| IC50 [1] | EC50S1P1/EC50S1P (S1P1 human receptor) | IC50 ([1]; Homo sapiens) | EC50 (S1P1 human receptor) | Efficacy (% of maximum) (S1P1 human receptor) | EC50 (S1P3 human receptor) | Compound |
| --- | --- | --- | --- | --- | --- | --- |
|  | 278 | 3.07 ± 0.46 µM | 0.783 µM | 109% |  | COc1ccc(-c2nc(-c3ccc4c(c3)CCN4CC(N)(CO)CO)no2)cc1Cl [Example 7, 2-Amino-2-((5-(5-(3-chloro-4-methoxyphenyl)-1,2,4-oxadiazol-3-yl)indolin-1-yl)methyl)propane-1,3-diol] |
|  | 23 | 1.93 ± 0.58 µM | 0.131 µM | 85% |  | NC(CO)(CO)CN1CCc2cc(OCc3cc4c(Cl)cc(Cl)cc4o3)ccc21 [Example 8, 2-Amino-2-((5-((4,6-dichlorobenzofuran-2-yl)methoxy)indolin-1-yl)methyl) propane-1,3-diol] |
|  | 4.75 | 1.7 ± 0.1 µM | 0.054 µM | 106% |  | CCOc1ccc(-c2nc(-c3cccc4c3ccn4CC(N)(CO)CO)no2)cc1OCC [Example 35, 2-Amino-2-((4-(5-(3,4-diethoxyphenyl)-1,2,4-oxadiazol-3-yl)-1H-indol-1-yl)methyl)propane-1,3-diol] |
|  | 65 | 1.31 ± 0.35 µM | 0.501 µM | 99% |  | NC(CO)(CO)CN1CCc2c(-c3noc(-c4ccc(-c5ccccc5C(F)(F)F)cc4)n3)cccc21 [Example 36, 2-Amino-2-((4-(5-(2′-(trifluoromethyl)biphenyl-4-yl)-1,2,4-oxadiazol-3-yl)indolin-1-yl)methyl)propane-1,3-diol] |
|  | 2.22 |  | 0.018 µM | 89% | 3.1 µM | CCCOc1ccc(-c2nc(-c3cccc4c3CCN4CC(N)(CO)CO)no2)cc1OCCC [Example 43, 2-Amino-2-((4-(5-(3,4-di-propoxyphenyl)-1,2,4-oxadiazol-3-yl)indolin-1-yl)methyl)propane-1,3-diol] |
|  | 0.33 |  | 0.0024 µM | 94% | 0.965 µM | CCCc1ccc(-c2nc(-c3cccc4c3CCN4CC(N)(CO)CO)no2)cc1CCC [Example 47, 2-Amino-2-((4-(5-(3,4-dipropylphenyl)-1,2,4-oxadiazol-3-yl)indolin-1-yl)methyl)propane-1,3-diol] |
|  | 9.26 | 10.2 µM | 0.114 µM | 112% |  | CCOc1ccc(-c2nc(-c3cccc4c3ccn4CC(N)(CO)CO)no2)cc1Cl [Example 49, 2-Amino-2-((4-(5-(3-chloro-4-ethoxyphenyl)-1,2,4-oxadiazol-3-yl)-1H-indol-1-yl)methyl)propane-1,3-diol] |
|  | 1.3 | 3 ± 0.17 µM | 0.0179 µM | 87% |  | CCCOc1ccc(-c2nc(-c3cccc4c3CCN4CC(N)(CO)CO)no2)cc1Cl [Example 50, 2-Amino-2-((4-(5-(3-chloro-4-propoxyphenyl)-1,2,4-oxadiazol-3-yl)indolin-1-yl)methyl)propane-1,3-diol] |
|  | 0.16 |  | 0.0074 µM | 97% | 0.39 µM | CCOc1ccc(-c2nc(-c3ccc4c(c3)CN(CC(N)(CO)CO)C4)no2)cc1OCC [Example 65, 2-Amino-2-((5-(5-(3,4-diethoxyphenyl)-1,2,4-oxadiazol-3-yl)isoindolin-2-yl)methyl)propane-1,3-diol] |
